Experimental data: ChEMBL document CHEMBL1806385, “Discovery of potent, soluble and orally active TRPV1 antagonists. Structure-activity relationships of a series of isoxazoles” (Bioorg Med Chem Lett, 2011)
In brackets after ≈: the same amount, converted by molar mass.

What was measured:
[1] = Plasma protein binding in Wistar rat; assay type: ADME, cell-free; conditions: read-out: PPB (converted)
[2] = physchem; conditions: phosphate buffered saline, pH 7.4
Description: Intrinsic solubility of the compound in phosphate buffered saline at pH 7.4 by shake-flask method

[3] = Intrinsic clearance in rat liver microsomes; assay type: ADME, Microsome
[4] = Plasma protein binding in human; assay type: ADME, cell-free; conditions: read-out: PPB (converted)
[5] = biological target: Transient receptor potential cation channel subfamily V member 1 (Homo sapiens, UniProt Q8NER1)
Description: Antagonist activity at human TRPV1 expressed in CHO cells assessed as inhibition of calcium flux by FLIPR assay

[6] = Intrinsic clearance in human liver microsomes; assay type: ADME, Microsome
[7] = AUClast in po dosed rat; assay type: ADME, organism-based; parameters: route oral, time 0 - last; conditions: plasma
[8] = Intrinsic clearance in rat hepatocytes assessed per 10^6 cells; assay type: ADME, cell-based, Liver, Hepatocyte
[9] = Intrinsic clearance in human hepatocytes assessed per 10^6 cells; assay type: ADME, cell-based, Liver, Hepatocyte
[10] = test system: Rattus norvegicus; assay: Antihyperalgesic activity in po dosed rat capsaicin hargreaves model assessed as reversal of capsaicin-induced thermal hyperalgesia measured by paw withdrawal latency administered 2 hrs before capsaicin challenge; assay type: functional

Sequence of Transient receptor potential cation channel subfamily V member 1 (Q8NER1 whole entry): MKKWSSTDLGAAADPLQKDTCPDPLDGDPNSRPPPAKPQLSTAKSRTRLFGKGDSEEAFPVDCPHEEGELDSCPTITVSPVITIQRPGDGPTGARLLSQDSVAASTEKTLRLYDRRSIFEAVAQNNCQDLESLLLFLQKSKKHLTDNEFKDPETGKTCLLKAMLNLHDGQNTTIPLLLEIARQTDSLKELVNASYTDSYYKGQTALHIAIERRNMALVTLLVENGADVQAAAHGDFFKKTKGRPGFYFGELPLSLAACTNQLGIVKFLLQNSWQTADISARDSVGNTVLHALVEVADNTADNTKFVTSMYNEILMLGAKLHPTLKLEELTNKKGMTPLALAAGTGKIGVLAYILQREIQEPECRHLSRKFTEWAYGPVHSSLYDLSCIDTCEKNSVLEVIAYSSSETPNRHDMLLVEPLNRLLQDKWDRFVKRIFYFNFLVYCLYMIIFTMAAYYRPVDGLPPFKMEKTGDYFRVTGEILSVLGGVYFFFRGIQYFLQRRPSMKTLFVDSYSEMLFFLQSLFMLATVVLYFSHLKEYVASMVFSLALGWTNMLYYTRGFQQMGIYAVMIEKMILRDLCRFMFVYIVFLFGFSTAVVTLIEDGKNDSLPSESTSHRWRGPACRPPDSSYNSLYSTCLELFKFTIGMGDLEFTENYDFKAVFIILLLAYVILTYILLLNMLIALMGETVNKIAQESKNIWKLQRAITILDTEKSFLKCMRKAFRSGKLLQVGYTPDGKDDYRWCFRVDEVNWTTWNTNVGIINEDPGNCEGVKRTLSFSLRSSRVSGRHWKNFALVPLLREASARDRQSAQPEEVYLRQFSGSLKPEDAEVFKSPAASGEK

| solubility thermodynamic [2] [µg/mL] | IC50 [5] [nM] | SMILES | further results |
| --- | --- | --- | --- |
| < 1 | 0.501 | O=C(N[C@@H]1CCC[C@H](O)C1)c1noc(-c2ccc(C(F)(F)F)cc2)c1Cl | fraction unbound [1]: 0.007; microsomal CLint [3]: < 12 µL/min/mg; fraction unbound [4]: 0.01; microsomal CLint [6]: < 12 µL/min/mg |
| 38 (≈ 112 µM) | 50.1 | O=C(N[C@@H]1CCC[C@H](O)C1)c1noc(-c2ccc(F)cc2)c1Cl | – |
| – | – | CC(C)NCc1c(C(=O)N[C@@H]2CCC[C@H](O)C2)noc1-c1ccc(C(F)(F)F)cc1 | AUC(0-t) [7]: 2730 ng·h/mL; hepatocyte CLint [8]: < 6 µL/min/1e6 cells; hepatocyte CLint [9]: < 6 µL/min/1e6 cells; MED [10]: 30 µmol/kg |
| < 1 | 0.631 | O=C(N[C@@H]1CCC[C@H](O)C1)c1noc(-c2ccc(C(F)(F)F)c(F)c2)c1Cl | – |
| 3 (≈ 8.45 µM) | 5.01 | O=C(N[C@@H]1CCC[C@H](O)C1)c1noc(-c2ccc(Cl)cc2)c1Cl | – |
| 2 (≈ 5.36 µM) | 0.631 | O=C(N[C@@H]1CCC[C@H](O)C1)c1noc(-c2ccc(Cl)c(F)c2)c1Cl | – |
| 4 (≈ 10.4 µM) | 2 | Cc1c(C(=O)N[C@@H]2CCC[C@H](O)C2)noc1-c1ccc(C(F)(F)F)c(F)c1 | – |
| 27 (≈ 71.3 µM) | 12.6 | CCOc1cc(Cl)ccc1-c1onc(C(=O)N[C@@H]2CCC[C@H](O)C2)c1C | – |
| 28 (≈ 73.9 µM) | 200 | CCOc1cc(Cl)ccc1-c1onc(C(=O)NC2CCC(O)CC2)c1C (stereo not drawn) | – |
| < 1 | 12.6 | CCOc1cc(Cl)ccc1-c1onc(C(=O)NC2CCOCC2)c1C | – |
| 11 (≈ 29.5 µM) | 3.16 | O=C(N[C@@H]1CCC[C@H](O)C1)c1onc(-c2ccc(Cl)c(F)c2)c1Cl | – |
| 47 (≈ 139 µM) | 794 | O=C(N[C@@H]1CCC[C@H](O)C1)c1onc(-c2ccc(F)cc2)c1Cl | – |
| 73 (≈ 190 µM) | 79.4 | O=C(N[C@@H]1CCC[C@H](O)C1)c1noc(-c2ccc(C(F)(F)F)cc2)c1CO | fraction unbound [1]: 0.091; microsomal CLint [3]: 27 µL/min/mg; fraction unbound [4]: 0.081; microsomal CLint [6]: < 12 µL/min/mg |
| 70 (≈ 182 µM) | 1580 | O=C(NC1CCC(O)CC1)c1noc(-c2ccc(C(F)(F)F)cc2)c1CO (stereo not drawn) | – |
| 66 (≈ 184 µM) | 1580 | CC[C@H](CO)NC(=O)c1noc(-c2ccc(C(F)(F)F)cc2)c1CO | – |
| 35 (≈ 94.5 µM) | 3160 | O=C(NC1CCOCC1)c1noc(-c2ccc(C(F)(F)F)cc2)c1CO | – |
| 1.5 (≈ 4.21 µM) | 126 | CC(C)[C@H](C)NC(=O)c1noc(-c2ccc(C(F)(F)F)cc2)c1CO | – |
| 1 (≈ 2.82 µM) | 158 | O=C(NC1CCCC1)c1noc(-c2ccc(C(F)(F)F)cc2)c1CO | – |
| < 1 | 1000 | CC(O)c1c(C(=O)NC2CCCC2)noc1-c1ccc(C(F)(F)F)cc1 (stereo not drawn) | – |
| < 1 | 5010 | CC(C)(O)c1c(C(=O)NC2CCCC2)noc1-c1ccc(C(F)(F)F)cc1 | – |
| 1.4 (≈ 3.74 µM) | 20 | CC(C)[C@H](C)NC(=O)c1noc(-c2ccc(C(F)(F)F)c(F)c2)c1CO | – |
| 73 (≈ 196 µM) | 39.8 | O=C(NC1CCCC1)c1noc(-c2ccc(C(F)(F)F)c(F)c2)c1CO | – |
| 31 (≈ 82.4 µM) | 158 | CC[C@H](CO)NC(=O)c1noc(-c2ccc(C(F)(F)F)c(F)c2)c1CO | – |
| 1.6 (≈ 4.05 µM) | 5010 | CCNC(=O)c1c(C(=O)NC2CCCC2)noc1-c1ccc(C(F)(F)F)cc1 | – |
| < 1 | 2000 | CN(C)C(=O)c1c(C(=O)NC2CCCC2)noc1-c1ccc(C(F)(F)F)cc1 | – |
| 72 (≈ 195 µM) | 1580 | O=C(NC1CCCC1)c1noc(-c2ccc(C(F)(F)F)cc2)c1C(=O)O | – |
| 4 (≈ 10.1 µM) | 63.1 | CC(C)NCc1c(C(=O)N[C@@H](C)C(C)C)noc1-c1ccc(C(F)(F)F)cc1 | – |
| 13 (≈ 32.9 µM) | 316 | CC(C)NCc1c(C(=O)NC2CCCC2)noc1-c1ccc(C(F)(F)F)cc1 | – |
| 12 (≈ 30.2 µM) | 794 | CC(C)NCc1c(C(=O)N[C@H](C)C(C)C)noc1-c1ccc(C(F)(F)F)cc1 | – |
